Source: ChEMBL document CHEMBL1201862, “PubChem BioAssay data set” (2004)
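A five-concentration, 48-hour dose response in 96-well plates underlies each endpoint, interpolated linearly between surrounding concentrations. Here, GI50 denotes the concentration required for 50% inhibition of growth.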 The source made the active and inactive calls. No stated cut-off is given here; in the data, active = GI50 up to about 1.1 µM and inactive = higher.

Tests used:
Assay in all cases: DTP human tumour cell line panel, 48 h
MCF7 = test system: MCF7
SN12C = test system: SN12C
T47D = test system: T47D
TK-10 = test system: TK-10
CCRF-CEM = test system: CCRF-CEM
MDA-MB-435 = test system: MDA-MB-435
MOLT-4 = test system: MOLT-4
OVCAR-5 = test system: OVCAR-5
SK-MEL-2 = test system: SK-MEL-2
RPMI-8226 = test system: RPMI-8226
SNB-75 = test system: SNB-75
NCI-H460 = test system: NCI-H460
SK-OV-3 = test system: SK-OV-3
786-0 = test system: 786-0
Hs-578T = test system: Hs-578T
SF-268 = test system: SF-268
SNB-19 = test system: SNB-19
DU-145 = test system: DU-145
K562 = test system: K562
HCT-116 = test system: HCT-116
HOP-62 = test system: HOP-62
NCI-H23 = test system: NCI-H23
SK-MEL-5 = test system: SK-MEL-5
OVCAR-4 = test system: OVCAR-4
EKVX = test system: EKVX
SK-MEL-28 = test system: SK-MEL-28
OVCAR-8 = test system: OVCAR-8
U-251 = test system: U-251
ACHN = test system: ACHN
A549 = test system: A549
MDA-MB-231 = test system: MDA-MB-231
NCI-H226 = test system: NCI-H226
SW-620 = test system: SW-620
HCT-15 = test system: HCT-15
M14 = test system: M14
IGROV-1 = test system: IGROV-1
UACC-257 = test system: UACC-257
HOP-92 = test system: HOP-92
OVCAR-3 = test system: OVCAR-3
SF-295 = test system: SF-295
UO-31 = test system: UO-31
KM12 = test system: KM12
HCC 2998 = test system: HCC 2998
COLO 205 = test system: COLO 205
RXF 393 = test system: RXF 393
HT-29 = test system: HT-29
SF-539 = test system: SF-539
A498 = test system: A498
NCI/ADR-RES = test system: NCI/ADR-RES
UACC-62 = test system: UACC-62
HL-60 = test system: HL-60
CAKI-1 = test system: CAKI-1
LOX IMVI = test system: LOX IMVI
MDA-N = test system: MDA-N
PC-3 = test system: PC-3
NCI-H522 = test system: NCI-H522

Measured: GI50

O=C(Cc1ccccc1)NN1C(=O)/C(=C\c2ccc([N+](=O)[O-])cc2)S/C1=N\c1ccccc1
> 100 µM: HCT-15
inactive: MCF7 63.2 µM | SN12C > 100 µM | T47D 62.1 µM | TK-10 > 100 µM | CCRF-CEM 68.9 µM | MDA-MB-435 > 100 µM | MOLT-4 55 µM | OVCAR-5 > 100 µM | SK-MEL-2 > 100 µM | RPMI-8226 > 100 µM | SNB-75 > 100 µM | NCI-H460 > 100 µM | SK-OV-3 > 100 µM | 786-0 > 100 µM | Hs-578T > 100 µM | SF-268 > 100 µM | SNB-19 > 100 µM | DU-145 > 100 µM | K562 42.5 µM | HCT-116 > 100 µM | HOP-62 > 100 µM | NCI-H23 68.5 µM | SK-MEL-5 > 100 µM | OVCAR-4 > 100 µM | EKVX > 100 µM | SK-MEL-28 > 100 µM | OVCAR-8 77.6 µM | U-251 > 100 µM | ACHN > 100 µM | A549 > 100 µM | MDA-MB-231 > 100 µM | NCI-H226 > 100 µM | SW-620 > 100 µM | M14 > 100 µM | IGROV-1 > 100 µM | UACC-257 > 100 µM | HOP-92 68.9 µM | OVCAR-3 47.8 µM | SF-295 > 100 µM | UO-31 > 100 µM | KM12 > 100 µM | HCC 2998 > 100 µM | COLO 205 > 100 µM | RXF 393 > 100 µM | HT-29 > 100 µM | SF-539 > 100 µM | A498 > 100 µM | NCI/ADR-RES > 100 µM | UACC-62 61.1 µM

CC(=O)O[C@H]1C(=O)[C@@]2(C)C(C(OC(=O)c3ccccc3)[C@]3(O)CC(OC(=O)[C@H](OC(=O)CCC(=O)O)C(NC(=O)c4ccccc4)c4ccccc4)C(C)=C1C3(C)C)C1(OC(C)=O)COC1C[C@@H]2O (stereo not given in full)
inactive: CAKI-1 5.3 µM | OVCAR-4 31.8 µM
active: HL-60 < 0.01 µM | MCF7 < 0.01 µM | T47D 0.0272 µM | TK-10 0.136 µM | CCRF-CEM < 0.01 µM | MDA-MB-435 < 0.01 µM | MOLT-4 < 0.0153 µM | RPMI-8226 < 0.01 µM | NCI-H460 < 0.0132 µM | Hs-578T < 0.0175 µM | SF-268 0.0252 µM | SNB-19 0.0506 µM | HCT-116 < 0.01 µM | NCI-H23 0.0193 µM | SK-MEL-5 < 0.0159 µM | LOX IMVI < 0.0105 µM | MDA-N < 0.01 µM | A549 0.0366 µM | NCI-H226 0.0122 µM | IGROV-1 < 0.0119 µM | HOP-92 0.656 µM | HCC 2998 0.0302 µM | PC-3 < 0.0128 µM | SF-539 < 0.01 µM | NCI-H522 < 0.01 µM | A498 < 0.0118 µM | UACC-62 < 0.0113 µM
0.995 µM: HCT-15
